Consider 19 molecules from patent US8058243B2, “Method for treating a brain cancer with ifenprodil” (HSC Research and Development Limited Partnership, priority 2006, dated 2011).

Where a name gives a salt, the structure may show the parent alone. Read-outs that look alike come from different tables or passages of the source.

This test has as its system murine neural precursor cells (neurosphere cultures). Kind of test: HTS of LOPAC library against secondary neurosphere cultures, MTT proliferation assay at 3 μM, day 7 (z score, P value). Type of test: cell-based, mouse.
Setting [1] is: LOPAC primary screen, neurosphere MTT proliferation, 3 μM, day 7.
The mark [2] stands for this setting: yes/no: significantly inhibited neurosphere proliferation in primary screen.
Setting [3] is: LOPAC library screen at 3 μM, secondary neurosphere cultures, MTT.
[4] abbreviates: yes/no: significantly inhibited neurosphere proliferation (P<0.01) in primary screen.
[5] abbreviates: yes = significantly inhibited neurosphere proliferation (P<0.01) in the primary screen.
[6] abbreviates: LOPAC screen, neurosphere MTT proliferation, 3 μM, day 7.
The mark [7] stands for this setting: LOPAC library screen, 3 μM, MTT, secondary neurosphere cultures, day 7.
Where [8] appears, read: yes/no: significantly inhibited neurosphere proliferation in the primary screen.
Setting [9] is: yes/no: significantly inhibited neurosphere proliferation (P<0.01) in the primary screen.

`Cl.Cl.NCCCCN` [Putrescine dihydrochloride]: the Activity result is on record as “no”, the “Z Score” value was −0.7689 and the Z score is reported as −0.769.

On to `CC(N)c1cccc(Cl)c1Cl.Cl` (stereo not drawn), for which the “Z Score” value was −2.251.

Under setting [1], `NC[C@@H]1O[C@H](O[C@H]2[C@@H](O)[C@H](O[C@@H]3[C@@H](O)[C@H](N)C[C@H](N)[C@H]3O[C@H]3O[C@H](CO)[C@@H](O)[C@H](O)[C@H]3N)O[C@@H]2CO)[C@H](N)[C@@H](O)[C@@H]1O.O=S(=O)(O)O` [Paramomycin sulfate] registered a Z score of 0.821. The Activity result under setting [2] is listed as “no”.

On to `CC(C)(C(=O)O)c1ccc(C(O)CCCN2CCC(C(O)(c3ccccc3)c3ccccc3)CC2)cc1` (stereo not drawn) [Fexofenadine hydrochloride], for which the Activity result is “no”. Further, the “Z Score” value under setting [3] is −0.7572. This molecule also had a Z score under setting [1] of −0.757.

Take `Nc1nc(Cl)nc2c1ncn2[C@@H]1O[C@H](CO)[C@@H](O)[C@H]1O` [2-Chloroadenosine]: where the note is “168 h, 3 µM”, the “Z Score” value was −0.396 and the Z score is reported as −0.396. Further, the Activity entry under setting [4] is recorded as “no”.

On to `CN1C[C@H](O)[C@@H](O)[C@H](O)[C@H]1CO` [N-Methyl-1-deoxynojirimycin], for which the “Z Score” value is on record as −1.335. The molecule also came in with a Z score under setting [1] of −1.335. For the same molecule, the Activity result under setting [5] was “no”.

Regarding `CN(C)c1ccc(/C=C2\C(=O)Nc3ccccc32)cc1` [SU 4312], the “Z Score” value is recorded as 0.2692. Besides, the Z score under setting [1] worked out at 0.269. In addition, the Activity result under setting [2] was “no”.

Take `CNC(=O)[C@H]1O[C@@H](n2cnc3c(NCc4cccc(I)c4)nc(Cl)nc32)[C@H](O)[C@@H]1O` [Chloro-IB-MECA]: under setting [3], the “Z Score” value was −0.8471. This molecule displayed a Z score under setting [6] of −0.847. Further, the Activity result under setting [4] is “no”.

Consider `O=C(O)C1=CCNCC1` [Isoguvacine hydrochloride], for which the “Z Score” value under setting [7] is listed as −2.22. In addition, the Z score under setting [1] was −2.220. Besides, the Activity entry under setting [4] is “no”.

In the case of `COC(=O)c1c(-c2cc(OC)c(OC)c(OC)c2)c2ccnc(OCc3ncccn3)c2c(=O)n1Cc1ccnc(C)c1` [T-0156], the “Z Score” value came out at 0.07709. Moreover, the Z score (primary LOPAC screen, 3 μM, MTT, neurosphere proliferation) was found to be 0.077. Further, the Activity result under setting [8] is “no”.

`Cn1c(=O)c2[nH]c(-c3ccc(S(=O)(=O)O)cc3)nc2n(C)c1=O` [8-(p-Sulfophenyl)theophylline]: under “168 h, 3 µM”, the “Z Score” value was 1.047 and the Z score came to 1.047. For the same molecule, under setting [8], the Activity entry is given as “no”.

Take `NC(CP(=O)(O)O)C(=O)O` (stereo not drawn) [(B1)-2-Amino-3-phosphonopropionic acid]: the “Z Score” value is on record as 1.25.

On to `CCCCCC(O)c1cccc(OCc2ccc3ccccc3n2)c1` (stereo not drawn) [REV 5901], for which, for the setting “168 h, 3 µM”, the “Z Score” value was −1.184 and the Z score is recorded as −1.184. Further, under setting [2], the Activity entry is on record as “no”.

On to `O=C(O)c1cccnc1C(=O)O` [Quinolinic acid], for which, for the setting “168 h, 3 µM”, the “Z Score” value was −2.419 and the Z score is listed as −2.419. Moreover, the Activity entry under setting [5] is “yes”.

On to `Cn1c(=O)c2c(ncn2C)n(C)c1=O` [Caffeine], for which, where the note is “LOPAC library screen, 3 μM, MTT, neurosphere cultures”, the “Z Score” value was 0.4113. For the same molecule, the Z score under setting [6] is listed as 0.411.

On to `O=c1c(-c2ccc(O)cc2)coc2cc(O)ccc12` [Daidzein], for which the “Z Score” value under setting [7] is listed as −2.931. The molecule further yielded a Z score under setting [1] of −2.931. In addition, under setting [9], the Activity entry is listed as “yes”.

As for NSC 95397, the “Z Score” value is listed as −1.098. Under setting [1], this molecule came in with a Z score of −1.098. The Activity entry under setting [9] was “no”.

With `CCCN1CCO[C@@H]2c3cc(O)ccc3OC[C@H]21.Cl` [S(+)-PD 128,907 hydrochloride], the “Z Score” value was −1.174. Under setting [1], this molecule registered a Z score of −1.174. Further, the Activity entry under setting [2] was “no”.

Consider `CCn1cc(C(=O)O)c(=O)c2ccc(C)nc21` [Nalidixic acid sodium], for which the “Z Score” value is recorded as −0.3145. The molecule also came in with a Z score under setting [1] of −0.314. Further, under setting [5], the Activity result is on record as “no”.
